This is an account of results in PMC11320574 (ACS Infectious Diseases, 2024).

The structures appear in SMILES notation. Positions of bridges follow the written chain, without caps; N, C: chain ends. Residues, ends and D or L forms follow the SMILES beside them.

Data set [1] in a line: Resistance to breakdown by serum proteases. It counts as in vitro ADME. Particulars: human, 25% (v/v) human serum in PBS.
Data set [2] relates to P. falciparum 3D7. The data set is described as follows: In vitro growth inhibition of P. falciparum 3D7. The class given is cell-based, Plasmodium falciparum. Particulars: HC10 of uninfected RBCs relative to Pf IC50 with 5 mg/mL Albumax II supplement.

Compound `CC[C@H](C)[C@@H]1NC(=O)[C@H](CCCCN)NC(=O)[C@H](CCCCN)NC(=O)[C@H](Cc2ccc(O)cc2)NC(=O)[C@H](CC(C)C)NC(=O)[C@@H]2CCCN2C(=O)[C@H](C)NC(=O)CNC(=O)CNC(=O)[C@H](CO)NC(=O)CNC(=O)CNC(=O)[C@H](CO)NC(=O)[C@H](CCCCN)NC(=O)[C@H](CC(C)C)NC(=O)[C@H](CC(C)C)NC(=O)[C@H](CCCCN)NC(=O)[C@H](CCCCN)NC(=O)[C@H]([C@@H](C)CC)NC(=O)[C@H]([C@@H](C)CC)NC(=O)[C@H](CCCCN)NC(=O)[C@H](CCCCN)NC(=O)[C@H](Cc2ccc(O)cc2)NC(=O)[C@H](CC(C)C)NC(=O)[C@@H]2CCCN2C(=O)CNC(=O)CNC(=O)[C@@H](NC(=O)CN)CSSC[C@@H](C(N)=O)NC(=O)[C@H](CC(C)C)NC(=O)[C@H](CCCCN)NC(=O)[C@H](CCCCN)NC(=O)[C@H]([C@@H](C)CC)NC1=O` [Peptide 10] (H-GCGGPLYKKIIKKLLKSGGSGGAPLYKKIIKKLC-NH2; disulfide 2-34; N-terminus assumed) had a fraction remaining at 24 h, 50 μM in data set [1] of 0%. In addition, the “Activity-hemolysis index RBC HC10/ Pf IC50” value in data set [2] came to 6.5 ± 1.2.
